Data: ChEMBL document CHEMBL2016435 (Bioorg Med Chem Lett, 2012)

Tests used:
[1] = molecular target: 3',5'-cyclic-AMP phosphodiesterase 4D (Homo sapiens, UniProt Q08499); experiment: Inhibition of human PDE4D2 catalytic domain (86 to 413) expressed in Escherichia coli BL21 using [3H]-cAMP/[3H]-cGMP after 15 mins by liquid scintillation counting
[2] = molecular target: High affinity cGMP-specific 3',5'-cyclic phosphodiesterase 9A (Homo sapiens, UniProt O76083); experiment: Inhibition of human PDE9A2 catalytic domain (181 to 506) expressed in Escherichia coli BL21 using [3H]-cAMP/[3H]-cGMP after 15 mins by liquid scintillation counting
[3] = molecular target: 3',5'-cyclic-AMP phosphodiesterase 4B (Homo sapiens, UniProt Q07343); experiment: Inhibition of human PDE4B2 catalytic domain and UCR2 (92 to 521) expressed in Escherichia coli BL21 using [3H]-cAMP/[3H]-cGMP after 15 mins by liquid scintillation counting
[4] = molecular target: cGMP-specific 3',5'-cyclic phosphodiesterase (Homo sapiens, UniProt O76074); experiment: Inhibition of human PDE5A1 catalytic domain (535 to 860) expressed in Escherichia coli BL21 using [3H]-cAMP/[3H]-cGMP after 15 mins by liquid scintillation counting

Chain of High affinity cGMP-specific 3',5'-cyclic phosphodiesterase 9A (O76083 whole entry, the tested form may be a part): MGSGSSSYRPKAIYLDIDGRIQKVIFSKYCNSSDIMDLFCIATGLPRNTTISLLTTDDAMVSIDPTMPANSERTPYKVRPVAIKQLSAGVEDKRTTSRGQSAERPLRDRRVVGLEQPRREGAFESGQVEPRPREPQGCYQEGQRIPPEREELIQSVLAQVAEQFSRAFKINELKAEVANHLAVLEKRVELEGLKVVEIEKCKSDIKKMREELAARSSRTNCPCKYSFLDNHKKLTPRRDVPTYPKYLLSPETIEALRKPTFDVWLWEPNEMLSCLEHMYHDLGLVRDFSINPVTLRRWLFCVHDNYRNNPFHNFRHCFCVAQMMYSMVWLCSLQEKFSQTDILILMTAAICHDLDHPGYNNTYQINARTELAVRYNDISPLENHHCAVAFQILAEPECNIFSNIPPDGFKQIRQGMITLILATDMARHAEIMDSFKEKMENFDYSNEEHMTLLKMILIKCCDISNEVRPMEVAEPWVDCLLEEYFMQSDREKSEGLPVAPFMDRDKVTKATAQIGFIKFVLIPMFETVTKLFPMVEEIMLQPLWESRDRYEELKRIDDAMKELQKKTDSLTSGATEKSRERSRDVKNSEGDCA
Chain of 3',5'-cyclic-AMP phosphodiesterase 4B (Q07343 whole entry, the tested form may be a part): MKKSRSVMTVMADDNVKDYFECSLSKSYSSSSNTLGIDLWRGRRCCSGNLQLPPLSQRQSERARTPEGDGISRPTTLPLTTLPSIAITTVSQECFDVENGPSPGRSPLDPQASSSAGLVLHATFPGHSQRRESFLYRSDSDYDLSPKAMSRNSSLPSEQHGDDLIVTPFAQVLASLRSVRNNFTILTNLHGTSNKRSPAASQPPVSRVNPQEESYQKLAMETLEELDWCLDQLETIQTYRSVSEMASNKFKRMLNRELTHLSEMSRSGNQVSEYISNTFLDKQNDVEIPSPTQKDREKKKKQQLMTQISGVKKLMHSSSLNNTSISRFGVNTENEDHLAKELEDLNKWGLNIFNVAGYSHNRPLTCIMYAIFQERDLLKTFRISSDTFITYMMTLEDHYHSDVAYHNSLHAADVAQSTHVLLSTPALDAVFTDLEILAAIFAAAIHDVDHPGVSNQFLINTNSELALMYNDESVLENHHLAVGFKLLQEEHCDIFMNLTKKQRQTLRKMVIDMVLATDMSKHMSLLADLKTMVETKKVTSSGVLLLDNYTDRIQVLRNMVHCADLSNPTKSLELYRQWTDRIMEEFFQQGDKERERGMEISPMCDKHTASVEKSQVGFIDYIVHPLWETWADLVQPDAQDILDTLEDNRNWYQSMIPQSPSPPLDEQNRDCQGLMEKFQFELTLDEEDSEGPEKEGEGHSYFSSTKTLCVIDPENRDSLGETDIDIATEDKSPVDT
Chain of 3',5'-cyclic-AMP phosphodiesterase 4D (Q08499 whole entry, the tested form may be a part): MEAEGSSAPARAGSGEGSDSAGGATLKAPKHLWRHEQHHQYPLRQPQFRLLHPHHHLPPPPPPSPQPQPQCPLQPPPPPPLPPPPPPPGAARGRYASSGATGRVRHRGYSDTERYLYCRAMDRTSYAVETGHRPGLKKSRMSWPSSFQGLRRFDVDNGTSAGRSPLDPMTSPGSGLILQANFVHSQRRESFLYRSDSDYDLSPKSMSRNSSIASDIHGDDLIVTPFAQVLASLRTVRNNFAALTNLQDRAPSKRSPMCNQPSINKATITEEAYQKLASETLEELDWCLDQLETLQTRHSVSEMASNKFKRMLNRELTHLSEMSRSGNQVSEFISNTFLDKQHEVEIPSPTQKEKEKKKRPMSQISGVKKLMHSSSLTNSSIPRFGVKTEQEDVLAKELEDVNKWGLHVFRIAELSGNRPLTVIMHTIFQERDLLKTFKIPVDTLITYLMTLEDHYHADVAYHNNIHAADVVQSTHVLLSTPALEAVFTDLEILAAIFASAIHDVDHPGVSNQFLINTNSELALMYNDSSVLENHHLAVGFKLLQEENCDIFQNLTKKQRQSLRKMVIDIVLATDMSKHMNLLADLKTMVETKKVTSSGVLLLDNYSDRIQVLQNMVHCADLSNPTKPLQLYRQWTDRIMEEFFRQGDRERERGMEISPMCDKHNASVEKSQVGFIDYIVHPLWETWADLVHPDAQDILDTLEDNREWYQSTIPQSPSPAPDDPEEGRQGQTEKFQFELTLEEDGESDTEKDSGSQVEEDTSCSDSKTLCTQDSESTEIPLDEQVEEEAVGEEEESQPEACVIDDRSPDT

SMILES | IC50 [1] | IC50 [2] | IC50 [3] | IC50 [4]
CC(C)=CCc1c(O)cc(-c2cc3ccc(O)cc3o2)cc1O [MORACIN C] | 26 µM | > 100 µM | 18.1 µM | > 50 µM
Oc1cc(O)cc(-c2cc3ccc(O)cc3o2)c1 [MORACIN M] |  | > 100 µM | 4.5 µM | > 40 µM
